Reference: patent publication US8933100B2 (priority 2012, dated 2015)
Like-named read-outs stand apart in the source and are kept apart here.

How the values were obtained:
[1] = tested on: male BALB/c mice; assay: In vivo efficacy test by forced swimming; design: species or system mouse; conditions: oral, 1 hour before test; Example 1 10, 30 or 100 mg/kg, paroxetine 30 or 100 mg/kg; last 4 minutes; FIG. 1
Method: After 1 hour, the mice were placed individually in glass cylinders (19 cm in height, 9 cm in diameter) holding 9 cm of water, and observed at 23° C. for 6 minutes, during which time their behavior was recorded with a video camera. The control group was given the same amount of vehicle (0.5% methyl cellulose solution, 10 mL/kg).
The immobility times during the last 4 minutes were calculated from the video recordings. The mice were considered to be immobile if the following three behavioral criteria were met: they stopped struggling, stopped climbing, and floated on the water basically immobile, with only the slight movement necessary to keep their heads above water.

[2] = biological target: T1, CYP2C9 (Homo sapiens, UniProt P11712); assay: Competitive CYP inhibition (Method 2), human hepatic microsome; type: in vitro ADME
Method: (§1) The inhibition rate was determined from the amounts of model substrate metabolites with and without addition of the test substance at each test substance concentration, and the IC50 value was calculated from the inhibition rate (calculation method in accordance with Xenobiotica, 1999, 29(1), 53-75).

[3] = biological target: T2, CYP1A2 (Homo sapiens, UniProt P05177); assay: as above; type: in vitro ADME; design: containing human hepatic microsome (0.2 mg/mL); from tissue; host or cells: human hepatic microsomal fraction; conditions: tested at 1 or 10 μM, phenacetin 10 μM, n = 2; read-out: CYP1A2 IC50 score (competitive inhibition)
T2 sequence (P05177 1-516): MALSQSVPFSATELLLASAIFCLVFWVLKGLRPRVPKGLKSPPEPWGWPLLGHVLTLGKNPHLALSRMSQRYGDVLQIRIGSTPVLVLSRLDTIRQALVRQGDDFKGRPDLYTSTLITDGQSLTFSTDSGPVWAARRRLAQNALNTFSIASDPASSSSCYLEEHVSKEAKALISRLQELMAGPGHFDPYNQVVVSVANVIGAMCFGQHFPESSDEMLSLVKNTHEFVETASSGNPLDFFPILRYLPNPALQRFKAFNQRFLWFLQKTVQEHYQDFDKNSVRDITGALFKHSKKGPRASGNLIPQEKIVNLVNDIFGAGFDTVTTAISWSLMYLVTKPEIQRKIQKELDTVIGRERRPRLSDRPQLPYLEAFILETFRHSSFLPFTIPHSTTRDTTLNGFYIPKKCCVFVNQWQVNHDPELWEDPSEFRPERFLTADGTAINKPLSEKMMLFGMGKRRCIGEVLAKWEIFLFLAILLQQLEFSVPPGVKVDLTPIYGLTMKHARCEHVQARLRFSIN
Method: as §1

[4] = biological target: T1, CYP2C9; assay: Time-dependent CYP inhibition (Method 1), human hepatic microsome; type: in vitro ADME; conditions: 30 min pre-incubation at 37° C., tolbutamide, n = 2
Method: (§2) The test substance was added to an enzyme solution (containing human hepatic microsome (0.2 mg/mL), 100 mM Kpi and 0.1 mM EDTA), and pre-incubated for 30 minutes at 37° C. in the presence of or absence of the coenzyme. The final concentration of the test substance was set at 0.1, 0.2, 0.4, 0.5, 1, 2, 10 or 50 μM. A NADPH generating system (60 mM MgCl2 solution containing 3.6 mM β-NADP^+, 90 mM glucose-6 phosphate and 1 Unit/mL glucose-6-phosphate dehydrogenase, incubated for 5 minutes to generate NADPH) was used as the coenzyme. After pre-incubation, part of the reaction solution was collected, diluted 10 times by mixing with a model substrate solution and the NADPH generating system, and then incubated for 10 minutes at 37° C. An equal amount of a mixed solution of acetonitrile and methanol (1:1, containing 0.05 μM dextrophan or 0.05 μM propranolol as an internal standard) was added to terminate the reaction, and metabolites of the model substrate in the reaction solution were measured by LC-MS/MS. […] The ratio relative to the amount of model substrate metabolites in the control test was given as residual activity. The ratio of residual activity in the presence of NADPH relative to residual activity in the absence of NADPH was evaluated, and the ratio of 80% or less was defined “+”, while the ratio of above 80% was defined as “−”.

[5] = biological target: T3, CYP2C19 (Homo sapiens, UniProt P33261); assay: as above; type: in vitro ADME; conditions: 30 min pre-incubation at 37° C., S-mephenytoin, n = 2
Method: as §2

[6] = biological target: T4, CYP3A4 (Homo sapiens, UniProt P08684); assay: as above; type: in vitro ADME; conditions: 30 min pre-incubation at 37° C., midazolam, n = 2
Method: as §2

[7] = biological target: T5, CYP2D6 (Homo sapiens, UniProt P10635); assay: Competitive CYP inhibition (Method 2), human hepatic microsome; type: in vitro ADME
Method: as §1

[8] = biological target: T4, CYP3A4; assay: as above; type: in vitro ADME
Method: as §1

[9] = biological target: T3, CYP2C19; assay: as above; type: in vitro ADME
Method: as §1

[10] = biological target: T6, serotonin transporter (Rattus norvegicus, UniProt P31652); assay: Inhibitory action on serotonin transporter (fluorescent substrate uptake in rat platelets); type: cell-based
T6 construct: evaluated using rat platelets expressing serotonin transporters; from tissue
Method: That is, the test compound was added to rat platelets, the fluorescent substance of a Neurotransmitter Transporter Activity Assay Kit (Molecular Devices, R8174) was added beginning after 15 minutes, and changes in fluorescent intensity from uptake of the fluorescent substance were measured over time to evaluate the inhibitory effect of the test compound on serotonin transporter.
2 Centrifugation was carried out at 350 g at room temperature for 5 minutes, and the supernatant containing platelet-rich plasma was collected in 15 ml falcon tubes.
3 Centrifugation was carried out at 2100 g at room temperature for 10 minutes to obtain platelets as a pellet. Ca-free K5 buffer was added in the amount of 0.7 times the amount of platelet-rich plasma obtained in operation 2, and the pellet was triturated by pipetting.
5 The fluorescent substance of a Neurotransmitter Transporter Activity Assay Kit was added, and changes in fluorescent intensity over time from uptake of the fluorescent substance through serotonin transporters were measured with a FDSS 6000 (Hamamatsu Photonics).

[11] = biological target: T5, CYP2D6; assay: Time-dependent CYP inhibition (Method 1), human hepatic microsome; type: in vitro ADME; conditions: 30 min pre-incubation at 37° C., bufuralol, n = 2
Method: as §2

[12] = biological target: T2, CYP1A2; conditions: 30 min pre-incubation at 37° C., phenacetin, n = 2
Method: as §2

T5 sequence (P10635 whole entry): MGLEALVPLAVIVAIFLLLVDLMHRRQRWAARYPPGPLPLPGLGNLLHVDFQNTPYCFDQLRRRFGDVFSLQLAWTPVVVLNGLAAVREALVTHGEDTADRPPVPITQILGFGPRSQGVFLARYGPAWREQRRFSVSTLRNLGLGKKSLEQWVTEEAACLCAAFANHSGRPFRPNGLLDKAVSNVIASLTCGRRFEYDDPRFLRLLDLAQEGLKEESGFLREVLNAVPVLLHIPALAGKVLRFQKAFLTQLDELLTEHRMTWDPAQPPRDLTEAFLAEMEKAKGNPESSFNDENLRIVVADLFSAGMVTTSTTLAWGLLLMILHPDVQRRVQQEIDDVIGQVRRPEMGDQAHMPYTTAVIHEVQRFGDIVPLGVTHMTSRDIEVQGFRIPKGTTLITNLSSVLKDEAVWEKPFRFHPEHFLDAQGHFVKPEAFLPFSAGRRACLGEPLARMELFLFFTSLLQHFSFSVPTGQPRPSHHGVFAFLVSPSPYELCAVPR
T3 sequence (P33261 whole entry): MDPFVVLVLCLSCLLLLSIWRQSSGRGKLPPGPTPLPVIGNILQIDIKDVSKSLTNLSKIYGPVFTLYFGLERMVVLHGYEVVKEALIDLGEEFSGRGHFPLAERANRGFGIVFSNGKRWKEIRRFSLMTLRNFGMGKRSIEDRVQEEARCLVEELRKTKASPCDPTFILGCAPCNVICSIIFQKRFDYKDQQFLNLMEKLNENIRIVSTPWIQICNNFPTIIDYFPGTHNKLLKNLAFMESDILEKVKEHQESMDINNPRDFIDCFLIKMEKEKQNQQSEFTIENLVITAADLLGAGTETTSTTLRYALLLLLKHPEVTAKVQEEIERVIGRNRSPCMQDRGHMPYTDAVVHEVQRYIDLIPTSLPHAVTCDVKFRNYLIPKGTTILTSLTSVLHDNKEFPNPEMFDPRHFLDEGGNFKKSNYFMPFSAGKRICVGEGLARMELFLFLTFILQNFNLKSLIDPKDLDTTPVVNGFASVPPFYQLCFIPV
T1 sequence (P11712 whole entry): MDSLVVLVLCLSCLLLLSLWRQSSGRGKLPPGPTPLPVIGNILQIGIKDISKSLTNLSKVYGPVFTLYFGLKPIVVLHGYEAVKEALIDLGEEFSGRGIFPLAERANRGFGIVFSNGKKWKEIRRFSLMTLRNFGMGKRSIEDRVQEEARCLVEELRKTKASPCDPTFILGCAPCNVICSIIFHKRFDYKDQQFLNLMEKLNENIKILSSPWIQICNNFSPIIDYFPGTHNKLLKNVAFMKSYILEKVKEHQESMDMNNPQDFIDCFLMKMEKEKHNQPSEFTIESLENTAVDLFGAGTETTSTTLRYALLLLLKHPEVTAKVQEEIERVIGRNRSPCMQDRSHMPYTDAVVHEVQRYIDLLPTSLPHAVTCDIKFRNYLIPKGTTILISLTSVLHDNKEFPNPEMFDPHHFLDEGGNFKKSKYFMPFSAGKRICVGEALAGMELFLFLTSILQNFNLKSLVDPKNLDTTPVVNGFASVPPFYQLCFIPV
T4 sequence (P08684 whole entry): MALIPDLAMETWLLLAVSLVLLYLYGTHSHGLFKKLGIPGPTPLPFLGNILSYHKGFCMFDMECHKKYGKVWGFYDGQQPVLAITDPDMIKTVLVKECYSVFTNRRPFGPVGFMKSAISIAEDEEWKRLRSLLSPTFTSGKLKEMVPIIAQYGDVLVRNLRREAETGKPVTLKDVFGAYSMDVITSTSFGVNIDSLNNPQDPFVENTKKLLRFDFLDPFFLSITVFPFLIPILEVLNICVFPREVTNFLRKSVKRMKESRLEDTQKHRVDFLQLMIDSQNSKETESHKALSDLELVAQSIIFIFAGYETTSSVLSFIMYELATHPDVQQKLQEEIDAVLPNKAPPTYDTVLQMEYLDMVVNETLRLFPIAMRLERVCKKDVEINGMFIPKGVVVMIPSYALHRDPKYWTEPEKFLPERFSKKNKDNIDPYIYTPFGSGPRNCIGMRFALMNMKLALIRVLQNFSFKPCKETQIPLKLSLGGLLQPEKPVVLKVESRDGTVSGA
T6 sequence (P31652 whole entry): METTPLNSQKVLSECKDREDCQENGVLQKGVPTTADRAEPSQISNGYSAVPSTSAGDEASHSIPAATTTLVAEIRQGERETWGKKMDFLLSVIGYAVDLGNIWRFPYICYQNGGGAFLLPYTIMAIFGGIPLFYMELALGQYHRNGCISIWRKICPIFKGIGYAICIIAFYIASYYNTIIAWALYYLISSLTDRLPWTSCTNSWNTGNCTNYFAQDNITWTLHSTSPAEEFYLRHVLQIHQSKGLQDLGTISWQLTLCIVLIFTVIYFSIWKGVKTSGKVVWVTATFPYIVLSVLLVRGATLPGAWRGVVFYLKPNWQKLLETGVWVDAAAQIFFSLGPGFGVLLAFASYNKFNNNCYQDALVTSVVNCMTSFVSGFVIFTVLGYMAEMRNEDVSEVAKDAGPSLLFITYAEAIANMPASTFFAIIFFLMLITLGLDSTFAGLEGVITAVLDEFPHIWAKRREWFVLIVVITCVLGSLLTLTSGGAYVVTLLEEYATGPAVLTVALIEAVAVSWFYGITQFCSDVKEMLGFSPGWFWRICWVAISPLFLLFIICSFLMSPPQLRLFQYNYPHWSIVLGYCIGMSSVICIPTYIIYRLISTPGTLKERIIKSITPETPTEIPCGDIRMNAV

Row | IC50 ([2]; tested at 1 or 10 μM, tolbutamide 100 μM, n = 2, read-out: CYP2C9 IC50 score (competitive inhibition)) [µM] | SMILES | immobility time in forced swimming test [1] | IC50 [3] [µM] | Ratio of residual CYP2C9 activity in presence vs absence of NADPH after pre-incubation ([4]; 10 μM) | Ratio of residual CYP2C9 activity in presence vs absence of NADPH after pre-incubation ([4]; 50 μM) | Ratio of residual CYP2C19 activity in presence vs absence of NADPH after pre-incubation ([5]; 10 μM) | Ratio of residual CYP2C19 activity in presence vs absence of NADPH after pre-incubation ([5]; 50 μM) | Ratio of residual CYP3A4 activity in presence vs absence of NADPH after pre-incubation ([6]; 10 μM) | Ratio of residual CYP3A4 activity in presence vs absence of NADPH after pre-incubation ([6]; 50 μM) | IC50 [7] [µM] | IC50 [8] [µM] | IC50 [9] [µM] | IC50 [2] [µM] | IC50 [10] [µM] | Ratio of residual CYP2D6 activity in presence vs absence of NADPH after pre-incubation ([11]; 10 μM) | Ratio of residual CYP2D6 activity in presence vs absence of NADPH after pre-incubation ([11]; 50 μM) | Ratio of residual CYP1A2 activity in presence vs absence of NADPH after pre-incubation ([12]; 10 μM) | Ratio of residual CYP1A2 activity in presence vs absence of NADPH after pre-incubation ([12]; 50 μM)
1 | > 10 | Fc1ccc([C@@H]2CCNC[C@H]2COc2ccc3c(c2)OCO3)cc1 [Paroxetine, (3S,4R)-3-[(2H-1,3-benzodioxol-5-yloxy)methyl]-4-(4-fluorophenyl)piperidine, reference compound] | dose-dependently suppressed immobility time | > 10 | – | – | – | – | – | – | – | – | – | – | – | – | – | – | –
2 | – | Fc1ccc([C@@H]2CCNC[C@H]2COc2ccc3c(c2)COC3)cc1 [Example 1, (3S,4R)-3-[(1,3-dihydro-2-benzofuran-5-yloxy)methyl]-4-(4-fluorophenyl)piperidine] | dose-dependently suppressed immobility time | > 10 | − (the ratio of above 80% was defined as “−”) | − (the ratio of above 80% was defined as “−”) | − (the ratio of above 80% was defined as “−”) | − (the ratio of above 80% was defined as “−”) | − (the ratio of above 80% was defined as “−”) | − (the ratio of above 80% was defined as “−”) | > 10 | > 10 | > 10 | > 10 | 0.0024 | − (the ratio of above 80% was defined as “−”) | − (the ratio of above 80% was defined as “−”) | − (the ratio of above 80% was defined as “−”) | − (the ratio of above 80% was defined as “−”)
